In patent US8148415B2, “Sulfamic acid ester compounds useful in the inhibition of steroid sulphatase activity and aromatase activity” (Sterix Limited, priority 2004, dated 2012):
Like-named read-outs stand apart in the source and are kept apart here.

How the values were obtained:
E1-STS = target: T1, E1-STS (Homo sapiens, UniProt P08842); settings: intact MCF-7 cells, 0.1 nM; cited from earlier work
T1 construct: endogenous in cells; host or cells: MCF-7 cells
T1 sequence (P08842 22-583): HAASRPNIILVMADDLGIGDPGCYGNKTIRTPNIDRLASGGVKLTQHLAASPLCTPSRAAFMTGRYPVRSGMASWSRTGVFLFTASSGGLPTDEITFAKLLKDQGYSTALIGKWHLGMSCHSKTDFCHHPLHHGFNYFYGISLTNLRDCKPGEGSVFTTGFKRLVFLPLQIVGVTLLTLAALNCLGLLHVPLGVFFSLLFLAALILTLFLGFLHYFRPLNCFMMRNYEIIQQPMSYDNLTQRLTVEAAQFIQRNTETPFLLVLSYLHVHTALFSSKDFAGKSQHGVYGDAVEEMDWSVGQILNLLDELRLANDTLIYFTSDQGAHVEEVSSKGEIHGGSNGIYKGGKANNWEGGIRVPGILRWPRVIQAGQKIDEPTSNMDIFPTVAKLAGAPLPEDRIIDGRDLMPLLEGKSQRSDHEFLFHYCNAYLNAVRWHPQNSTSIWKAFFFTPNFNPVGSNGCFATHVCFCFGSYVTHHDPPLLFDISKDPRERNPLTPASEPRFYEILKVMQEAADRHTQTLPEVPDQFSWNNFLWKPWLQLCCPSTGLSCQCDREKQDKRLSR

rat liver E1-STS = target: T2, rat liver E1-STS (Rattus norvegicus, UniProt P15589); settings: administered orally or subcutaneously; cited from earlier work
T2 construct: from tissue; host or cells: rat liver
T2 sequence (P15589 20-577): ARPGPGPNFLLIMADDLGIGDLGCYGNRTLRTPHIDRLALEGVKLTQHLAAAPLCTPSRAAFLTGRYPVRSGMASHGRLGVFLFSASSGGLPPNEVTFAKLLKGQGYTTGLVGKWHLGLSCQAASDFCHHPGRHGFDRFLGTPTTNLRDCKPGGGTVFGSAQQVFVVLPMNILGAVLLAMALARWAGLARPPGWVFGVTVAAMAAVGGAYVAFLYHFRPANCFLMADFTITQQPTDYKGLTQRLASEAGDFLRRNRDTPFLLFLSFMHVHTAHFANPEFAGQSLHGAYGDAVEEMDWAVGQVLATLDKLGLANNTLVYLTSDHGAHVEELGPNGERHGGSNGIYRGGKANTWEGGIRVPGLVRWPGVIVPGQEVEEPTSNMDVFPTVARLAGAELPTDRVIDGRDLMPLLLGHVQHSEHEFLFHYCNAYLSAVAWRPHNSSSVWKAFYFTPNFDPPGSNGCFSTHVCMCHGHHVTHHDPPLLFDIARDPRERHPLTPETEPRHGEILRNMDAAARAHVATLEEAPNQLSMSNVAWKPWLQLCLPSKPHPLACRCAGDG

rat liver DHEA-STS = target: T3, rat liver DHEA-STS (Rattus norvegicus, UniProt P15589); settings: administered orally or subcutaneously; cited from earlier work
T3 construct: rat liver E1-STS (99%) and DHEA-STS (99%) activities; from tissue; host or cells: rat liver
T3 sequence (P15589 20-577): T2 sequence (P15589 20-577)

rats = settings: rat, in vivo, cited from earlier work
Steroid sulphatase [1] = target: T4, Steroid sulphatase (Homo sapiens, UniProt P08842); settings: cited from earlier work
T4 sequence (P08842 22-583): T1 sequence (P08842 22-583)

[2] = cited from earlier work
Aromatase = target: T5, Aromatase (Homo sapiens, UniProt P11511); assay: Aromatase activity in intact JEG3 choriocarcinoma cells (Protocol 6); assay type: cell-based
T5 construct: Aromatase activity is measured in JEG3 choriocarcinoma cells, obtained from the ATCC; host or cells: JEG3 choriocarcinoma cells
T5 sequence (P11511 1-503): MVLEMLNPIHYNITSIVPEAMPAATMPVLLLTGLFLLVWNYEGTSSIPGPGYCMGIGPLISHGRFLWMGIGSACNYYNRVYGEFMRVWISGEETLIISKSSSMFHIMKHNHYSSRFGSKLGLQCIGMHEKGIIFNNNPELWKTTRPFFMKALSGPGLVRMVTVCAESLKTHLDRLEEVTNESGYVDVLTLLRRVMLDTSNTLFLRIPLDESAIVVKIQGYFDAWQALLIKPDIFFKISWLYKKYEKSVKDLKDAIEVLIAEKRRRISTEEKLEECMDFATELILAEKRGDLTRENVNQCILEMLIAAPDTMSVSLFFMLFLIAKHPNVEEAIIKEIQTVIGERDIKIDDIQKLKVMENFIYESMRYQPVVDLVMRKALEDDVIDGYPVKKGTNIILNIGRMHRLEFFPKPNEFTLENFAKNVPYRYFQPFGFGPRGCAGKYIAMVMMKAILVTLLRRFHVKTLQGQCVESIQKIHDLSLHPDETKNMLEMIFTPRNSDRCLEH

Steroid sulphatase [3] = target: T4, Steroid sulphatase; assay: Inhibition of steroid sulphatase activity in intact JEG3 cells (Protocol 1); assay type: cell-based; design: host or cells: JEG3 choriocarcinoma cells; settings: read-out: JEG3 cells IC50 Sulfatase
Procedure: Assay for Determining STS Activity Using Cancer Cells
Inhibition of Steroid Sulphatase Activity in JEG3 Cells
Steroid sulphatase activity is measured in vitro using intact JEG3 choriocarcinoma cells. This cell line may be used to study the control of human breast cancer cell growth.
Cells are maintained in Minimal Essential Medium (MEM) (Flow Laboratories, Irvine, Scotland) containing 20 mM HEPES, 5% foetal bovine serum, 2 mM glutamine, non-essential amino acids and 0.075% sodium bicarbonate. Up to 30 replicate 25 cm2 tissue culture flasks are seeded with approximately 1×10^5 cells/flask using the above medium. Cells are grown to 80% confluency and the medium is changed every third day.
Intact monolayers of JEG3 cells in triplicate 25 cm^2 tissue culture flasks are washed with Earle's Balanced Salt Solution (EBSS from ICN Flow, High Wycombe, U.K.) and incubated for 3-4 hours at 37° C. with 5 pmol (7×10^5 dpm) [6,7-3H]oestrone-3-sulphate (specific activity 60 Ci/mmol from New England Nuclear, Boston, Mass., U.S.A.) in serum-free MEM (2.5 ml) together with oestrone-3-sulphamate (11 concentrations: 0; 1 fM; 0.01 pM; 0.1 pM; 1 pM; 0.01 nM; 0.1 nM; 1 nM; 0.01 mM; 0.1 mM; 1 mM). […] A portion (2 ml) of the organic phase is removed, evaporated and the 3H and 14C content of the residue determined by scintillation spectrometry. […]

CC12CCC3c4ccc(OS(N)(=O)=O)cc4CCC3C1CCC2=O (centres unmarked) [EMATE, oestrone-3-sulphamate]
inhibition of E1-STS activity (E1-STS): more than 99%
inhibition of rat liver E1-STS activity (rat liver E1-STS): 99%
inhibition of rat liver DHEA-STS activity (rat liver DHEA-STS): 99%
oral uterotrophic activity relative to estradiol (rats; po): 100 times

COc1cc2c(cc1OS(N)(=O)=O)CC[C@@H]1[C@@H]2CC[C@]2(C)C(=O)CC[C@@H]12 [2-methoxyoestrone-3-O-sulphamate]
potency as steroid sulphatase inhibitor relative to EMATE (Steroid sulphatase [1]): equipotent with EMATE
oestrogenicity (rats): devoid of oestrogenicity

C[C@]12CC[C@@H]3c4ccc(OS(=O)(=O)O)cc4CC[C@H]3[C@@H]1CCC2=O [E1S, oestrone sulphate]
half-life in blood [2]: 10 to 12 h

COc1ccc(C(c2ccc(OC)c(O)c2)n2cncn2)cc1O
melting point: 217.5 to 219 °C

N#Cc1ccc(N(Cc2cccc(OS(N)(=O)=O)c2)n2cnnc2)cc1 [STX334, 4-[(3-O-Sulfamoylbenzyl)(4-cyanophenyl)amino]-4H-[1,2,4]triazole]
IC50 (Aromatase; intact JEG3 cells): 39 nM
IC50 (Steroid sulphatase [3]): 5130 nM

N#Cc1ccc(N(Cc2ccc(Br)c(OS(N)(=O)=O)c2)n2cnnc2)cc1 [STX1217, 4-[(4-Bromo-3-O-sulfamoylbenzyl)(4cyanophenyl)amino]-4H-[1,2,4]triazole]
IC50 (Aromatase): 3.9 nM
